Source: patent US11780845B2 (Relay Therapeutics, Inc., priority 2019, dated 2023)

Key:
[1] = system: SNU-16; assay: Cell SNU-16 assay; assay type: cell-based
[2] = target: FGFR2 (Homo sapiens (Human), UniProt P21802); assay: Biochemical FGFR2 Caliper assay
[3] = Homo sapiens, SNU-16, SNU-16 cells

Chain of FGFR2 (P21802 22-821): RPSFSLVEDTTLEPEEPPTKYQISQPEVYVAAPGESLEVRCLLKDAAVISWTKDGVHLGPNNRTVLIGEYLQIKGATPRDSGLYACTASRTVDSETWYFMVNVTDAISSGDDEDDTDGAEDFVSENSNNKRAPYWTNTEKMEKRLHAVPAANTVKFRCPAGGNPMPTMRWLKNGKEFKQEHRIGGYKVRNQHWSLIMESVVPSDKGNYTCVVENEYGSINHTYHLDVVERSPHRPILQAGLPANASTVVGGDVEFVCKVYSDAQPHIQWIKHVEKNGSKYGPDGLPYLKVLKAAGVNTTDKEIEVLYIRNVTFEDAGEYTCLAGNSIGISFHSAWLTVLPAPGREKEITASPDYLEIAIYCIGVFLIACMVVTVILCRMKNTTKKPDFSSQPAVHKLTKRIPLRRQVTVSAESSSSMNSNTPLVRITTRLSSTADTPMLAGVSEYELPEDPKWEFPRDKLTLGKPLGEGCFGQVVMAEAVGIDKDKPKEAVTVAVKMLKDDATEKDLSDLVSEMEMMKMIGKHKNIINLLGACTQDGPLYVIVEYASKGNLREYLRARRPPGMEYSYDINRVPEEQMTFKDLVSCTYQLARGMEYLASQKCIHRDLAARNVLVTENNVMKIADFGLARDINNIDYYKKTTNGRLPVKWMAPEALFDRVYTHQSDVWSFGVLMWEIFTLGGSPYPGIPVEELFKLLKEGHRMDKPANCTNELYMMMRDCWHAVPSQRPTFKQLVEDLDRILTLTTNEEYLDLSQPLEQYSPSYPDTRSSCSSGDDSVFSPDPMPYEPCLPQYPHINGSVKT

| SMILES | IC50 ([1]; SNU-16 cells) [nM] | IC50 [2] [nM] | IC50 [1, 3] [nM] | IC50 ([1]; Homo sapiens, SNU-16 cells) [nM] |
| --- | --- | --- | --- | --- |
| C#Cc1cc(C)c(-c2c(-c3ccc(Oc4nccc(C)n4)c(F)c3)c3c(N)ncnc3n2C(C)C)cn1 (atropisomer, axis not shown) [Example 1307] | ≤ 100 |  |  |  |
| C#Cc1cc(C)c(-c2c(-c3ccc(Oc4nccc(C)n4)c(F)c3)c3c(N)ncnc3n2C)c(F)n1 (atropisomer, axis not shown) [Example 1340] | ≤ 100 |  |  |  |
| C#Cc1cc(C)c(-c2c(-c3ccc(Oc4nccc(C)n4)c(F)c3)c3c(N)ncnc3n2C)c(C)n1 (atropisomer, axis not shown) [Example 1342] | ≤ 100 |  |  |  |
| C#Cc1cc(C)c(-c2c(C3=CC[C@H](C(=O)N4CCC[C@H]4C)CC3)c3c(N)ncnc3n2C)c(F)n1 (atropisomer, axis not shown) [Example 1348] | ≤ 100 | 100 to 250 |  |  |
| C#Cc1cc(C)c(-c2c(C3=CC[C@H](C(=O)N4CCC[C@H]4C)CC3)c3c(N)ncnc3n2C)c(F)n1 (atropisomer, axis not shown) [Example 1349] | ≤ 100 |  |  |  |
| C#Cc1ncc(-c2c(-c3ccc(Oc4nccc(C)n4)c(F)c3)c3c(N)ncnc3n2C(C)C)c(C)c1F (atropisomer, axis not shown) [Example 1360] | ≤ 100 |  |  |  |
| C#Cc1cc(OC)c(-c2c(-c3ccc(Oc4nccc(C)n4)c(F)c3)c3c(C)ncnc3n2C)c(C)n1 (atropisomer, axis not shown) [Example 1446] | ≤ 100 | < 100 |  |  |
| C#Cc1cc(C)c(-c2c(C3=CC[C@@H](C(=O)N4CCC[C@H]4C#N)CC3)c3c(C)ncnc3n2C)c(C)n1 (atropisomer, axis not shown) [Example 1464] | 250 to 1000 | 250 to 1000 |  |  |
| C#Cc1cc(C)c(-c2c(C3=CC[C@H](C(=O)N4CCC[C@H]4C#N)CC3)c3c(C)ncnc3n2C)c(C)n1 (atropisomer, axis not shown) [Example 1465] | ≤ 100 | < 100 |  |  |
| C#Cc1cc(C)c(-c2c(C3=CC[C@H](C(=O)N4CCC[C@H]4C#N)CC3)c3c(N)ncnc3n2C)c(C)n1 (atropisomer, axis not shown) [Example 1470] | ≤ 100 |  |  |  |
| C#Cc1cc(C)c(-c2c(C3=CC[C@@H](C(=O)N4CCC[C@H]4C#N)CC3)c3c(N)ncnc3n2C)c(C)n1 (atropisomer, axis not shown) [Example 1472] | ≤ 100 |  |  |  |
| C#Cc1cc(C)c(-c2c(-c3ncc(Oc4nccc(C)n4)cc3F)c3c(N)ncnc3n2C)c(C)n1 (atropisomer, axis not shown) [Example 1493] | ≤ 100 |  |  |  |
| Cn1c([C@@H]2CCN(C#N)C2)c(-c2ccc(C(=O)N3CCCC3)cc2)c2c(N)ncnc21 (single isomer, unassigned) [Example 860] |  | < 100 | 250 to 1000 |  |
| Cn1c([C@H]2CCN(C#N)C2)c(-c2ccc(C(=O)N3CCCC3)cc2)c2c(N)ncnc21 (single isomer, unassigned) [Example 861] |  | 1000 to 100000 | 1000 to 100000 |  |
| C=CS(=O)(=O)N1CC[C@H](c2c(-c3ccc(C(=O)N4CCCC4)cc3)c3c(N)ncnc3n2C)C1 (single isomer, unassigned) [Example 863] |  | 250 to 1000 | 100 to 250 |  |
| C=CS(=O)(=O)N1CC[C@@H](c2c(-c3ccc(C(=O)N4CCCC4)cc3)c3c(N)ncnc3n2C)C1 (single isomer, unassigned) [Example 864] |  | < 100 | 100 to 250 |  |
| C=CC(=O)N1CC=C(c2c(C3=CC[C@@H](C(=O)N4CCCC4)CC3)c3c(N)ncnc3n2C)C1 (single isomer, unassigned) [Example 872] |  | 100 to 250 | 100 to 250 |  |
| C=CC(=O)Nc1ccc(-c2c(C3=CC[C@@H](C(=O)N4CCCC4)CC3)c3c(N)ncnc3n2C)cc1 (single isomer, unassigned) [Example 1051] | ≤ 100 |  |  |  |
| C=C(C)C(=O)Nc1cc(C)c(-c2c(C3=CC[C@@H](C(=O)N4CCCC4)CC3)c3c(N)ncnc3n2C)c(C)c1 (single isomer, unassigned) [Example 1485] | 1000 to 100000 |  |  |  |
| C=C(C)C(=O)Nc1ccc(-c2c(-c3ccc(Oc4nccc(C)n4)c(F)c3)c3c(N)ncnc3n2C)cc1 [Example 1028] |  |  |  | ≤ 100 |
| C=CC(=O)Nc1ccc(-c2c(-c3ccc(Oc4nccc(C)n4)c(F)c3)c3c(C)ncnc3n2C)c(C)c1 [Example 1127] | ≤ 100 |  |  |  |
| C#Cc1cc(C)c(-c2c(-c3ccc(Oc4nccc(C)n4)c(F)c3)c3c(C)ncnc3n2C)c(C)n1 [Example 1410] | ≤ 100 |  |  |  |
| C#Cc1cc(C)c(-c2c(-c3ccc(Oc4nccc(C)n4)c(F)c3)c3c(C)ncnc3n2C)c(F)n1 [Example 1415] | ≤ 100 |  |  |  |
| C#Cc1cc(OC)c(-c2c(C3=CC[C@H](C(=O)N4CCC[C@H]4C#N)CC3)c3c(C)ncnc3n2C)c(C)n1 [Example 1474] | ≤ 100 |  |  |  |
| C#Cc1cc(OC)c(-c2c(-c3ncc(Oc4nccc(C)n4)cc3F)c3c(N)ncnc3n2C)cn1 [Example 1489] | ≤ 100 |  |  |  |

More lines, main results first:

| IC50 ([1]; SNU-16 cells) [nM] | IC50 [2] [nM] | IC50 [1, 3] [nM] | SMILES | IC50 ([1]; Homo sapiens, SNU-16 cells) [nM] |
| --- | --- | --- | --- | --- |
| ≤ 100 |  |  | C#Cc1cc(C)c(-c2c(-c3ccc(Oc4nccc(C)n4)c(F)c3)c3c(N)ncnc3n2C(C)C)cn1 (atropisomer, axis not shown) [Example 1308] |  |
| ≤ 100 |  |  | C#Cc1cc(C)c(-c2c(-c3ccc(Oc4nccc(C)n4)c(F)c3)c3c(N)ncnc3n2C)c(F)n1 (atropisomer, axis not shown) [Example 1339] |  |
| ≤ 100 |  |  | C#Cc1cc(C)c(-c2c(-c3ccc(Oc4nccc(C)n4)c(F)c3)c3c(N)ncnc3n2C)c(C)n1 (atropisomer, axis not shown) [Example 1344] |  |
|  | < 100 | ≤ 100 | C#Cc1cc(C)c(-c2c(-c3ccc(Oc4nccc(C)n4)c(F)c3)c3c(N)ncnc3n2[C@H]2C[C@H](O)C2)cn1 (atropisomer, axis not shown) [Example 1357] |  |
| ≤ 100 |  |  | C#Cc1ncc(-c2c(-c3ccc(Oc4nccc(C)n4)c(F)c3)c3c(N)ncnc3n2C(C)C)c(C)c1F (atropisomer, axis not shown) [Example 1361] |  |
|  | < 100 | ≤ 100 | C#Cc1cc(C)c(-c2c(-c3ncc(Oc4nccc(C)n4)cc3F)c3c(N)ncnc3n2C)c(C)n1 (atropisomer, axis not shown) [Example 1453] |  |
| ≤ 100 | < 100 |  | C#Cc1cc(OC)c(-c2c(-c3ccc(Oc4nccc(C)n4)c(F)c3)c3c(C)ncnc3n2C)c(C)n1 (atropisomer, axis not shown) [Example 1459] |  |
| 250 to 1000 | 1000 to 100000 |  | C#Cc1cc(OC)c(-c2c(-c3ccc(Oc4nccc(C)n4)c(F)c3)c3c(C)ncnc3n2C)c(C)n1 (atropisomer, axis not shown) [Example 1460] |  |
|  | 100 to 250 | ≤ 100 | C#Cc1cc(C)c(-c2c(C3=CC[C@H](C(=O)N4CCC[C@H]4C#N)CC3)c3c(C)ncnc3n2C)c(C)n1 (atropisomer, axis not shown) [Example 1463] |  |
| 100 to 250 | 100 to 250 |  | C#Cc1cc(C)c(-c2c(C3=CC[C@@H](C(=O)N4CCC[C@H]4C#N)CC3)c3c(C)ncnc3n2C)c(C)n1 (atropisomer, axis not shown) [Example 1466] |  |
|  | < 100 | ≤ 100 | C#Cc1cc(C)c(-c2c(C3=CC[C@H](C(=O)N4CCC[C@H]4C#N)CC3)c3c(N)ncnc3n2C)c(C)n1 (atropisomer, axis not shown) [Example 1469] |  |
|  | < 100 | ≤ 100 | C#Cc1cc(C)c(-c2c(C3=CC[C@@H](C(=O)N4CCC[C@H]4C#N)CC3)c3c(N)ncnc3n2C)c(C)n1 (atropisomer, axis not shown) [Example 1471] |  |
|  | < 100 | ≤ 100 | C=C(C)C(=O)Nc1ccc(-c2nn3ccnc(N)c3c2C2=CC[C@@H](C(=O)N3CCCC3)CC2)cc1 (single isomer, unassigned) [Example 867] |  |
|  | 1000 to 100000 | 250 to 1000 | C=C(C)C(=O)Nc1ccc(-c2nn3ccnc(N)c3c2C2=CC[C@H](C(=O)N3CCCC3)CC2)cc1 (single isomer, unassigned) [Example 869] |  |
|  | 250 to 1000 | 250 to 1000 | C=CC(=O)N1CC=C(c2c(C3=CC[C@H](C(=O)N4CCCC4)CC3)c3c(N)ncnc3n2C)C1 (single isomer, unassigned) [Example 871] |  |
|  | 1000 to 100000 | 250 to 1000 | C=CC(=O)N1CC[C@H](c2c(C3=CC[C@H](C(=O)N4CCCC4)CC3)c3c(N)ncnc3n2C)C1 (single isomer, unassigned) [Example 873] |  |
|  | 250 to 1000 | 100 to 250 | C=CC(=O)N1CC[C@H](c2c(C3=CC[C@@H](C(=O)N4CCCC4)CC3)c3c(N)ncnc3n2C)C1 (single isomer, unassigned) [Example 874] |  |
|  | 250 to 1000 | 250 to 1000 | Cc1ccnc(Oc2ccc(-c3c([C@@H]4CCN(C(=O)CCl)C4)n(C)c4ncnc(N)c34)cc2)n1 (single isomer, unassigned) [Example 875] |  |
|  | < 100 | ≤ 100 | Cc1ccnc(Oc2ccc(-c3c([C@H]4CCN(C(=O)CCl)C4)n(C)c4ncnc(N)c34)cc2)n1 (single isomer, unassigned) [Example 876] |  |
|  | 1000 to 100000 | 1000 to 100000 | C=C(C)C(=O)Nc1ccc(-c2c(C3=C(F)C[C@@H](C(=O)N4CCCC4)CC3)c3c(N)ncnc3n2C)cc1 (single isomer, unassigned) [Example 883] |  |
| ≤ 100 |  |  | C=CC(=O)Nc1ccc(-c2c(C3=CC[C@H](C(=O)N4CCCC4)CC3)c3c(N)ncnc3n2C)cc1 (single isomer, unassigned) [Example 1049] |  |
| 1000 to 100000 |  |  | C=C(C)C(=O)Nc1cc(C)c(-c2c(C3=CC[C@H](C(=O)N4CCCC4)CC3)c3c(N)ncnc3n2C)c(C)c1 (single isomer, unassigned) [Example 1487] |  |
| ≤ 100 |  |  | C#Cc1ncc(-c2c(C3=CC[C@H](C(=O)N4CCCC4)CC3)c3c(C)ncnc3n2C)c(C)n1 [Example 1179] |  |
| ≤ 100 |  |  | C#Cc1cc(C)c(-c2c(-c3ccc(Oc4nccc(C)n4)c(F)c3)c3c(C)ncnc3n2C)c(C)n1 [Example 1409] |  |
| ≤ 100 |  |  | C#Cc1cc(C)c(-c2c(-c3ccc(Oc4nccc(C)n4)c(F)c3)c3c(C)ncnc3n2C)c(F)n1 [Example 1414] |  |
| ≤ 100 |  |  | C#Cc1cc2c(cn1)-c1c(-c3ccc(Oc4nccc(C)n4)c(F)c3)c3c(N)ncnc3n1CCO2 [Example 1494] |  |
